Experimental data from PubChem BioAssay (NCI).
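Test compounds were applied to cells in 96-well plates for 48 hours at 5 doses. TGI: total growth inhibition.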

Columns and labels:
Assay in all cases: NCI anticancer screen, dose series, 48 h
LXFL 529 NSCLC = tested on: LXFL 529 NSCLC
M19-MEL melanoma = tested on: M19-MEL melanoma
SNB-78 CNS = tested on: SNB-78 CNS
KM20L2 colon = tested on: KM20L2 colon
DMS 114 small cell lung = tested on: DMS 114 small cell lung
XF 498 CNS = tested on: XF 498 CNS

Measured: TGI

COc1ccc(/C=N/n2cnc3c(c2=O)SC(=C(C#N)C#N)N3c2ccccc2)cc1
> 100 µM: LXFL 529 NSCLC | M19-MEL melanoma

Nc1nc(SCc2ccccc2Cl)c2[nH]cnc2n1
not listed: XF 498 CNS
> 100 µM: all other assays above

C=CCCC1(C)CCCNC1=S (stereo not given)
> 100 µM: XF 498 CNS | KM20L2 colon | DMS 114 small cell lung
